Test results from US20030088061A1, “Materials and methods to modulate ligand binding/enzymatic activity of alpha/beta proteins containing an allosteric regulatory site” (priority 2000, published 2003).

Columns and labels:
Format in all cases: cell-based
Conditions in all cases: PMA-treated JY cells
α4β7 = molecular target: T1, α4β7 (Homo sapiens, UniProt P13612+P26010); assay: JY/α4β7 cell adhesion to MAdCAM-1/Ig
T1 construct: endogenous in cells; host or cells: JY cells
Method: (§1) To assess the selectivity of each compound, an IC50 value was determined for additional binding partner compounds JY/αVβ3 and vitronectin, JY/α4β1 and VCAM/Ig, JY/αdβ2 and VCAM, JY/[…] and ICAM-1, JY/αMβ2 and iC3b, and JY/α4β7 and MAdCAM-1.
(§2) For each IC50 assay, 50 μl of the ligand diluted in 50 mM bicarbonate buffer (pH 9.6) was dispensed per well of an Immulon-4 plate. A single plate was used to test two different ligands, each in triplicate, The coating concentration for the various ligands was as follows: VCAM-1/Ig at 2.0 μg/ml; ICAM-1/Ig at 5.0 μg/ml; vitronectin at 0.5 μg/ml; MAdCAM-1/Ig at 3.0 μg/ml, and iC3b at 5.0 μg/ml. The capture antibody, e.g. anti-CD18 monoclonal antibody TS1/22, was added at a concentration of 10 μg/ml in 50 μl/well. Ligand-coated plates were covered and stored overnight at 4° C. The following day, the contents of each well was decanted, and each plate was washed three times with 200 μl/well D-PBS. The plate was then blocked by the addition of 300 μl/well of 1% BSA/D-PBS solution. Each plate was again covered and incubated at room temperature for at least 1 hour.
(§3) Prior to transfer to the adhesion plate, the compounds were initially diluted by transferring 4.2 μl of the diluted compounds to a 96-well deepwell titer plate containing 0.7 ml/well of RPMI 1640, 0.1% BSA, and 3 ng/ml PMA (Sigma Corp., St. Louis, Mo.) pre-warmed to 37° C. The 1% BSA/D-PBS blocking solution was decanted from the 96-well Immulon-4 plates and replaced with 0.2 ml of diluted compound. For each 96-well plate to be screened, approximately 8×10^6 cells were collected by centrifugation and resuspended in adhesion media (RPMI 1640 containing 0.1% BSA) to a final concentration of 10^6/ml. To prevent PMA-dependent homotypic aggregation in the adhesion assay, the anti-CD18 antibody 22F12C (ICOS Corp., Bothell, Wash.) was added to the cell suspensions to a final concentration of 10 μg/ml, and the cells were incubated at 37° C. for 15 min. This antibody was not added to CD18-dependent adhesion assays involving JY/αLβ2, JY/αdβ2 or JY/αMβ2 and their corresponding ligands ICAM-1, VCAM-1, or iC3b.
(§4) The adhesion assay was initiated by addition of 100 μl of the cell suspension to each well of the Immulon-4 plate. […] Adherent cells were quantitated by determining the absorbance at 570 nm in a plate spectrophotometer. The percentage of cell binding was determined by using the mean values for each triplicate in a given assay and the formula below. […]
(§5) The four compounds Cmpd K, Cmpd W, Cmpd Z, Cmpd D identified in the primary screen were selected for further specificity profiling, whereby their IC50 values were determined in additional integrin-dependent adhesive events. […]

αMβ2 = molecular target: T2, αMβ2 (Homo sapiens, UniProt P05107+P11215); assay: JY/αMβ2 cell adhesion to iC3b
T2 construct: expressed in transfected cells; host or cells: JY (human B lymphoblastoid) cells
Method: as §1, §2
Prior to transfer to the adhesion plate, the compounds were initially diluted by transferring 4.2 μl of the diluted compounds to a 96-well deepwell titer plate containing 0.7 ml/well of RPMI 1640, 0.1% BSA, and 3 ng/ml PMA (Sigma Corp., St. Louis, Mo.) pre-warmed to 37° C. The 1% BSA/D-PBS blocking solution was decanted from the 96-well Immulon-4 plates and replaced with 0.2 ml of diluted compound. […]
as §4, §5

αLβ2 = molecular target: T3, αLβ2 (Homo sapiens, UniProt P05107+P20701); assay: JY/αLβ2 cell adhesion to ICAM-1/Ig
T3 construct: endogenous in cells; host or cells: JY cells
Method: as §1, §2, §3, §4, §5

αdβ2 = molecular target: T4, αdβ2 (Homo sapiens, UniProt P05107+Q13349); assay: JY/αdβ2 cell adhesion to VCAM
T4 construct: expressed in transfected cells; host or cells: JY cells, plasmid pMHneo/aD
Method: as §1, §2, §3, §4, §5

T1 sequence (P13612 34-1032): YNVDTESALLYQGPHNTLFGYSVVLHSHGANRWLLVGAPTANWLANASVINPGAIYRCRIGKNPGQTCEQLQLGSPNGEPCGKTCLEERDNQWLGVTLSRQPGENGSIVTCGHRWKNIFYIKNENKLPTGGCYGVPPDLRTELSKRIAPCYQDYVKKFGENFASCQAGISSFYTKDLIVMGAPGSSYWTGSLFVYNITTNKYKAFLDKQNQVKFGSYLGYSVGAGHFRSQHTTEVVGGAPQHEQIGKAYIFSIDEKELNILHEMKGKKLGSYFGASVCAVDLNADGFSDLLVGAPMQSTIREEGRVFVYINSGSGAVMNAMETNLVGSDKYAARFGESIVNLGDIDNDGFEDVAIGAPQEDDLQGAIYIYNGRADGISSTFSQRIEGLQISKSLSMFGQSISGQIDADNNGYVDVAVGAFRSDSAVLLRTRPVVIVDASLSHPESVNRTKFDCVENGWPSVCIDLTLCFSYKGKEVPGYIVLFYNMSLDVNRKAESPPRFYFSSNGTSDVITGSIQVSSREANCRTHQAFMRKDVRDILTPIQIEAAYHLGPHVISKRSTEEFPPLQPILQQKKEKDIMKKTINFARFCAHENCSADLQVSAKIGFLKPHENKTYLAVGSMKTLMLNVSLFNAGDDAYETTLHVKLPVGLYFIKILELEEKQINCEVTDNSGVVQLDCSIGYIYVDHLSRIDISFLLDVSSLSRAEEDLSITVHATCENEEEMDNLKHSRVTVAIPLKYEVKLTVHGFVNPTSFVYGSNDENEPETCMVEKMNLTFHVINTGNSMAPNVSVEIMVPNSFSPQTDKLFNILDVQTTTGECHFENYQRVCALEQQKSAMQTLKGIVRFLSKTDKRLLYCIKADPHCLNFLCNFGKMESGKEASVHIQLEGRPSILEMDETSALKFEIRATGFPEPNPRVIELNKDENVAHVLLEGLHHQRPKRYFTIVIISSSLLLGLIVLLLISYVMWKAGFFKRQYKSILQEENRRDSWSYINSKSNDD
T1 sequence (P26010 20-798): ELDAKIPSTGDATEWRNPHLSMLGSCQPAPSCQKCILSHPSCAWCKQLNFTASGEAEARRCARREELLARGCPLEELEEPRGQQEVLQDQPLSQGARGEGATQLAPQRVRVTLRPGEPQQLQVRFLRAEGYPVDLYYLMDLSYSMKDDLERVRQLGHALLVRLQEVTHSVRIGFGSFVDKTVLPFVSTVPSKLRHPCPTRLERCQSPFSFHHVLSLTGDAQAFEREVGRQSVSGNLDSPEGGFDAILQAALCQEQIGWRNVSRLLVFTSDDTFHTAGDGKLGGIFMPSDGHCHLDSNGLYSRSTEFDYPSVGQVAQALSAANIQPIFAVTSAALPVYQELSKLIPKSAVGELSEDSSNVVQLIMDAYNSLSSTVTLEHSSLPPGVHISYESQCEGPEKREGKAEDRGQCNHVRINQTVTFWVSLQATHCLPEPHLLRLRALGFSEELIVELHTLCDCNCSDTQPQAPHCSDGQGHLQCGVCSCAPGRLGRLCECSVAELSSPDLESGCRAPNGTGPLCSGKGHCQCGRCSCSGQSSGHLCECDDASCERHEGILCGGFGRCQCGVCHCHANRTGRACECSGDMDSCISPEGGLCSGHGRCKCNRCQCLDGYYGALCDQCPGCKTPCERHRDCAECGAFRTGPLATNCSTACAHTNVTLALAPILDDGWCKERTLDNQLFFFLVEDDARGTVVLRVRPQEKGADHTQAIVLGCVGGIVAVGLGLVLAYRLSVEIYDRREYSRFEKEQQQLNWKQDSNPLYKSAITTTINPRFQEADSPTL

| IC50 (α4β7) | IC50 (αMβ2) | IC50 (αLβ2) | IC50 (αdβ2) | SMILES |
| --- | --- | --- | --- | --- |
| 4 µM | 4 µM | 11 µM | > 40 µM | O=C(NCc1cccnc1)c1ccccc1C(=O)Nc1sc2ccccc2c1Cl [Cmpd K] |
| 11 µM | – | 20 µM | > 40 µM | CC(CN(C)C)NCc1ccccc1Sc1ccc(C(C)(C)C)cc1 (stereo not drawn) [Cmpd Z] |
| 4 µM | 7 µM | 28 µM | > 40 µM | CC(=O)Oc1ccccc1C(=O)n1c(-c2ccccc2)cc2ccccc21 [Cmpd D] |
| 5 µM | 4 µM | 30 µM | > 40 µM | Nc1ccc(Sc2ccc(NC(=O)CCc3ccccc3)cc2)c(Cl)c1 [Cmpd W] |
